The results in this text go back to patent US20160045612A1, “FUNCTIONALIZED NANOPARTICLES FOR MEDICAL TREATMENTS” (UNIVERSITY OF MASSACHUSETTS, priority 2013, published 2016).

Counter-ions that a name gives are not always drawn.

This assay has as its system engineered Str^r mutant E. coli ORN 208. The assay is described as follows: minimal inhibitory concentration (MIC) against streptomycin-resistant E. coli. Format: cell-based, Escherichia coli. The method, then:
The diverse particle size affects inhibition and control. Silica nanoparticles were synthesized with an average of 80, 50 and 30 nm. Streptomycin was conjugated via photocoupling method through perfluorophenyl azide (PFPA) chemistry. The MIC for free streptomycin sulfate was recorded as a high 2.0 mg/mL for an engineered Str^r mutant E. coli ORN 208.
It is reasonable to hypothesize that the more nanoparticles internalize into the bacteria the greater the effect of the antibiotic. […] The comparative difference of the streptomycin that can exert MIC is shown in FIG. 9 for the engineered Str^r mutant E. coli ORN 208 .

In the case of `[H]/N=C(/N)N[C@H]1[C@H](O)[C@@H](O)[C@H](O[C@@H]2O[C@@H](C)[C@](O)(C=O)[C@H]2O[C@@H]2O[C@@H](CO)[C@H](O)[C@@H](O)[C@@H]2NC)[C@@H](N/C(N)=N\[H])[C@@H]1O` [free streptomycin sulfate, Streptomycin sulfate], the MIC (Escherichia coli, read-out: minimum inhibitory concentration (MIC)) came out at 2000 µg/mL. For the same compound, for the setting “streptomycin resistant E. coli, MIC as streptomycin”, the “minimum inhibitory concentration (MIC)” value stood at 2000 µg/mL.
